Laboratory results published in US20220142995A1, “DUAL ATM AND DNA-PK INHIBITORS FOR USE IN ANTI-TUMOR THERAPY” (XRAD Therapeutics, Inc., priority 2019, published 2022).
Counter-ions that a name gives are not always drawn.

Tests used:
[1] = target: T1, hERG (Homo sapiens, UniProt Q12809); test: In-vitro hERG inhibition assay (manual patch clamp, hERG-T-REx HEK 293 cells); format: cell-based
T1 construct: host or cells: T-REx HEK293
Method: In-Vitro hERG Inhibition Assay:
The hERG-T-REx™ HEK 293 cells (Invitrogen, K1236) were generated by transfecting the hERG coding sequence in the Tet-regulated expression vector pT-Rex-DEST30 into cells expressing the Tet-repressor (T-Rex™ HEK293), thereby producing cells that can be induced to express high level of hERG channels. The cells were cultured in a medium containing of 85% DMEM, 10% dialyzed FBS, 0.1 mM NEAA, 25 mM HEPES, 100 U/mL Penicillin-Streptomycin, 5 μg/mL Blasticidin, and 400 μg/mL Geneticin. The cells were split using TrypLE™ Express (Gibco, 12604) about three times a week and maintained between ˜40% to ˜80% confluence. Before the assay, the cells were induced with doxycycline (Sigma, D9891) at 1 μg/mL for 48 hours. On the experiment day, the induced cells were resuspended and plated onto the coverslips at 5×10^5 cells/per 6 cm cell culture dish prior to use. The hERG channel-mediated current was acquired by manual patch clamp recording systems equipped with amplifiers (HEKA, EPC10 and Molecular Devices, multiclamp 700B) and the inverted phase contrast microscope (Olympus, IX51/71/73). Glass pipettes were prepared by micropipette puller (Sutter, P97 and Narishige, PC-10) and qualified by the pipette resistance in the range of […]. The internal pipette solution was 140 mM KCl, 2 mM MgCl2, 10 mM EGTA, 5 mM MgATP, and 10 mM HEPES (pH adjusted to 7.35 with KOH), and the external buffer was 132 mM NaCl, 4 mM KCl, 3 mM CaCl2), 0.5 mM MgCl2, 11.1 mM glucose, and 10 mM HEPES (pH adjusted to 7.35 with NaOH). The whole-cell configuration was maintained with access resistance continuously monitored (<15 M[…]). The hERG current was elicited by depolarizing membrane to +30 mV for 4.8 sec, and the voltage was set back to −50 mV for 5.2 sec to remove the inactivation and measure the deactivating tail current. The maximum amount of tail current size was used to determine hERG current amplitude. To evaluate the hERG inhibition, the blank vehicle and test articles were perfused to cells under whole-cell recording configuration through the liquid perfusion system (ALA, VM8 gravity-flow delivery system). For dose response assay, test article was applied to the cells accumulatively from low to high concentrations. A positive control (Dofetilide) was used in the experiments to ensure the performance of the cells and operations as major part of method validation. The percentage hERG current inhibition was fitted against dose concentrations to build the dose-response curve and determine IC50.

[2] = target: T2, PI3Kδ (Homo sapiens, UniProt O00329); test: PI3Kδ biochemical assay (ADP-Glo); conditions: second value of PI3K-α/δ cell; ATP 10 μM
T2 construct: purchased ThermoFisher PV6451
Method: PI3Kα and PI3Kδ Biochemical Assay:
PI3K[…] and PI3K[…] Kinase reactions were performed in a 5 μL volume in low-volume 384-well plates. Typically, PerkinElmer model 6008280 plates were used. The 1× kinase reaction buffer consisted of 50 mM HEPES pH 7.5, 3 mM MgCl2, 0.03% CHAPS, 1 mM EGTA, 100 mM NaCl, and 2 mM DTT. PI3K[…] (ThermoFisher, #PV4788; the final PI3K[…] concentration: 120 ng/mL) or PI3K[…] enzyme solution (ThermoFisher, #PV6451; the final PI3K[…] concentration: 250 ng/mL) was added to the plate, compounds were serially diluted to the final maximal concentration of 100 nM (3 fold series dilution, a total of 10 doses), and the PIP2:3PS (the final concentration: 10 µg/mL) and ATP solution (the final ATP concentration: 10 μM) was added to the 384-well plate. The plate was incubated at 25° C. for 1 hour. ADP-Glo reagent buffer (5 μL) was added to each well. The plate was sealed and incubated for 40 min at 25° C. ADP-Glo detection buffer (10 μL) was added to each well, and the plate was incubated for 40 min at 25° C. and read on a plate reader configured for Luminescence.

T1 sequence (Q12809 whole entry): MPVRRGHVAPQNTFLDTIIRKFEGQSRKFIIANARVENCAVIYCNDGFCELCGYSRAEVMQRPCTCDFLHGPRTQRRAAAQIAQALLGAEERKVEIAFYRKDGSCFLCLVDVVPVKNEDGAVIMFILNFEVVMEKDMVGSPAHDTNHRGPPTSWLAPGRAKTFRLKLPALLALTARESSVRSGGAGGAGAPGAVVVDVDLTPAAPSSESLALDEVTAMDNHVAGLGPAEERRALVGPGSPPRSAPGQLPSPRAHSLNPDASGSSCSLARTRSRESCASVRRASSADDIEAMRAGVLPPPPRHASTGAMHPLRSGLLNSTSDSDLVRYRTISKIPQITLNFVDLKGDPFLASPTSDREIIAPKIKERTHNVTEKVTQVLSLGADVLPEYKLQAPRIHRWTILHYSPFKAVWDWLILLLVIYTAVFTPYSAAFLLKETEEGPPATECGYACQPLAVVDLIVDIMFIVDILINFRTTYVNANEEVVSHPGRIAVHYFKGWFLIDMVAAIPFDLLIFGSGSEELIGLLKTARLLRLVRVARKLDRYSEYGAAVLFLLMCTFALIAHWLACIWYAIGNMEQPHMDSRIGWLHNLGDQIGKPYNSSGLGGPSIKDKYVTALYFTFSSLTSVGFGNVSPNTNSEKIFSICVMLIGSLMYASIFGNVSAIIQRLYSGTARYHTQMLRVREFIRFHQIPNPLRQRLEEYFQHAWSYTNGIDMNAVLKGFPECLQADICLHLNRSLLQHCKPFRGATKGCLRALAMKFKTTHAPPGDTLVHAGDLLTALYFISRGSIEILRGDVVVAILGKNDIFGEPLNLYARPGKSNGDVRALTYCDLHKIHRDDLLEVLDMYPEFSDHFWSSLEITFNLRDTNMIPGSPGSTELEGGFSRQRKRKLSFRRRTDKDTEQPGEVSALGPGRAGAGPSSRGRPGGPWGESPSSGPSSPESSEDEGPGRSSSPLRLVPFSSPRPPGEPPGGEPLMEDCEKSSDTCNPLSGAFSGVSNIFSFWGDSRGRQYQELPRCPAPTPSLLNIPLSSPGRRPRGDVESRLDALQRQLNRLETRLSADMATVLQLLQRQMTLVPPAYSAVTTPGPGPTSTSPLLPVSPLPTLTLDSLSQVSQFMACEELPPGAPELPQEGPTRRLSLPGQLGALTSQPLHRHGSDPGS
T2 sequence (O00329 whole entry): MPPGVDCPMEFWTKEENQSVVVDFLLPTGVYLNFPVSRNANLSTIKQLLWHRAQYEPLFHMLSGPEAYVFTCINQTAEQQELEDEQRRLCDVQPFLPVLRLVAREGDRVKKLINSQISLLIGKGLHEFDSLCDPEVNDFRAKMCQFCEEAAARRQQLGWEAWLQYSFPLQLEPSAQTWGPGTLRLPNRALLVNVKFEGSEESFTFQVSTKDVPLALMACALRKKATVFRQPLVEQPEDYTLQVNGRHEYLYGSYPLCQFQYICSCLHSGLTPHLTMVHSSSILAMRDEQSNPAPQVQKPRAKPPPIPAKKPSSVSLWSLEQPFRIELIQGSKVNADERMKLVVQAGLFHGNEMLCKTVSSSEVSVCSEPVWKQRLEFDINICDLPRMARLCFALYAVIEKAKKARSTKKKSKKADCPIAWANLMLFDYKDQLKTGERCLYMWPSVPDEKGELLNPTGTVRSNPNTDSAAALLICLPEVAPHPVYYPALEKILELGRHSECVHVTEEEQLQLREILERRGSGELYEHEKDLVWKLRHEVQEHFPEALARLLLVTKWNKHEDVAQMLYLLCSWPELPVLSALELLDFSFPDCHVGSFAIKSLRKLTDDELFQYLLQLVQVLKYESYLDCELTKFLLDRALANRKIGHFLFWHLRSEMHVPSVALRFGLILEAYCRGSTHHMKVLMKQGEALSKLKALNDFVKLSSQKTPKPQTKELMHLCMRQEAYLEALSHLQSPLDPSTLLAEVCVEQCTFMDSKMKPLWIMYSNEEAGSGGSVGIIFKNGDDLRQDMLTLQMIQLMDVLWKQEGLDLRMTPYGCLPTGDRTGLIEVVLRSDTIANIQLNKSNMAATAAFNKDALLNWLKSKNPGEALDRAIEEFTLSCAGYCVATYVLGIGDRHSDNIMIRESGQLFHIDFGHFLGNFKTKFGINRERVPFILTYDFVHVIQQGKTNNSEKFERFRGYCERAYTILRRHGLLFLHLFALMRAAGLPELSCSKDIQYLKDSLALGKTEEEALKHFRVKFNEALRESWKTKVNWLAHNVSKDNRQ
T2 sequence (P27986 whole entry partner): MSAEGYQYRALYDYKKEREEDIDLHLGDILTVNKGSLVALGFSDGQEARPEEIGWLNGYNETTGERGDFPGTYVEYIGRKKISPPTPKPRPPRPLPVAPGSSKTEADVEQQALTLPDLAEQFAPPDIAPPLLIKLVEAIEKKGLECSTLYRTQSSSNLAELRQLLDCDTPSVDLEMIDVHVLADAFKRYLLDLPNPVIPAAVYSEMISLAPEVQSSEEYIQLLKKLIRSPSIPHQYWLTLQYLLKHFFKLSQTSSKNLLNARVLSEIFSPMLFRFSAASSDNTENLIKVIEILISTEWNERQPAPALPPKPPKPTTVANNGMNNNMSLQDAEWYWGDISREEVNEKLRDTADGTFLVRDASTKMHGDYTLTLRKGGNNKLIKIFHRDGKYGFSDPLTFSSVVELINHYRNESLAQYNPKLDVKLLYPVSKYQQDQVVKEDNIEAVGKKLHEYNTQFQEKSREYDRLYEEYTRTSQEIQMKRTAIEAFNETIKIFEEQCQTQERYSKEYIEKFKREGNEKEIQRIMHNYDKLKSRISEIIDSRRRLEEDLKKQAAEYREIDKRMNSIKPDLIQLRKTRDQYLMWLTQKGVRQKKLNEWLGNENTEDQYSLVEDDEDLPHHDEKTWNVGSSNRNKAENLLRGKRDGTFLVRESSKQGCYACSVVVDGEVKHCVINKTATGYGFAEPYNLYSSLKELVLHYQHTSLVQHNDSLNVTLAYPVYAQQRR

`CC(C)NCCOc1ncc(-c2cc3c4c(cnc3cc2F)N(C)C(=O)C42CN(C(C)C)C2)cc1NS(C)(=O)=O` [Compound 571, N-(5-(7′-Fluoro-1-isopropyl-3′-methyl-2′-oxo-2′,3′-dihydrospiro[azetidine-3,1′-pyrrolo[2,3-c]quinolin]-8′-yl)-2-(2-(isopropylamino)ethoxy)pyridin-3-yl)methanesulfonamide] gave an IC50 ([1]; tail current) of 5.6 µM.

`CCS(=O)(=O)Nc1cc(-c2cc3c4c(cnc3cc2F)N(C)C(=O)C42CCC2)cnc1OCCNC(C)C` [Compound 570, N-(5-(7′-Fluoro-3′-methyl-2′-oxo-2′,3′-dihydrospiro[cyclobutane-1,1′-pyrrolo[2,3-c]quinolin]-8′-yl)-2-(2-(isopropylamino)ethoxy)pyridin-3-yl)ethanesulfonamide] showed an IC50 [2] of 0.055 µM and an IC50 ([1]; tail current) of 10.5 µM.

`CC(C)NCCOc1ncc(-c2cc3c4c(cnc3cc2F)N(C)C(=O)C42CCC2)cc1NS(C)(=O)=O` [Compound 569, N-(5-(7′-Fluoro-3′-methyl-2′-oxo-2′,3′-dihydrospiro[cyclobutane-1,1′-pyrrolo[2,3-c]quinolin]-8′-yl)-2-(2-(isopropylamino)ethoxy)pyridin-3-yl)methanesulfonamide] showed an IC50 [2] of 0.073 µM and an IC50 ([1]; human, hERG-T-REx HEK 293 cells expressing hERG, pH 7.35, tail current) of over 30 µM.

For `CC[C@H]1C[C@]2(C1)C(=O)N(C)c1cnc3cc(F)c(-c4cnc(OCCNC(C)C)c(NS(C)(=O)=O)c4)cc3c12` [Compound 573, cis-N-(5-(3-Ethyl-7′-fluoro-3′-methyl-2′-oxo-2′,3′-dihydrospiro[cyclobutane-1,1′-pyrrolo[2,3-c]quinolin]-8′-yl)-2-(2-(isopropylamino)ethoxy)pyridin-3-yl)methanesulfonamide], the IC50 [2] was 0.012 µM and the IC50 ([1]; tail current) was 3 µM.

Work on `CC(C)NCCOc1ncc(-c2cc3c4c(cnc3cc2F)N(C)C(=O)C42CCC2)cc1NS(=O)(=O)C(C)C` [Compound 568, N-(5-(7′-Fluoro-3′-methyl-2′-oxo-2′,3′-dihydrospiro[cyclobutane-1,1′-pyrrolo[2,3-c]quinolin]-8′-yl)-2-(2-(isopropylamino)ethoxy)pyridin-3-yl)propane-2-sulfonamide] yielded an IC50 [2] of 0.054 µM and an IC50 ([1]; tail current) of 14 µM.

For `CN1C(=O)C2(CCC2)c2c1cnc1ccc(-c3cnc(N4CC(N(C)C)C4)c(NS(C)(=O)=O)c3)cc21` [Compound 574, N-(2-(3-(Dimethylamino)azetidin-1-yl)-5-(3′-methyl-2′-oxo-2′,3′-dihydrospiro[cyclobutane-1,1′-pyrrolo[2,3-c]quinolin]-8′-yl)pyridin-3-yl)methanesulfonamide hydrochloride], the IC50 [2] was 0.003 µM and the IC50 ([1]; tail current) was over 30 µM.

Work on `CC[C@H]1C[C@@]2(C1)C(=O)N(C)c1cnc3cc(F)c(-c4cnc(OCCNC(C)C)c(NS(C)(=O)=O)c4)cc3c12` [Compound 566, trans-N-(5-(3-Ethyl-7′-fluoro-3′-methyl-2′-oxo-2′,3′-dihydrospiro[cyclobutane-1,1′-pyrrolo[2,3-c]quinolin]-8′-yl)-2-(2-(isopropylamino)ethoxy)pyridin-3-yl)methanesulfonamide] yielded an IC50 [2] of 0.014 µM and an IC50 ([1]; tail current) of 2.1 µM.

Work on `CC(C)NCCOc1ncc(-c2cc3c(cc2F)ncc2c3[C@]3(C[C@H](OCc4ccccc4)C3)C(=O)N2C)cc1NS(C)(=O)=O` [Compound 572, cis-N-(5-(3-(Benzyloxy)-7′-fluoro-3′-methyl-2′-oxo-2′,3′-dihydrospiro[cyclobutane-1,1′-pyrrolo[2,3-c]quinolin]-8′-yl)-2-(2-(isopropylamino)ethoxy)pyridin-3-yl)methanesulfonamide] yielded an IC50 [2] of 0.015 µM and an IC50 ([1]; tail current) of 7.5 µM.

For `CC(C)NCCOc1ncc(-c2cc3c(cc2F)ncc2c3[C@]3(C[C@@H](OCc4ccccc4)C3)C(=O)N2C)cc1NS(C)(=O)=O` [Compound 567, trans-N-(5-(3-(Benzyloxy)-7′-fluoro-3′-methyl-2′-oxo-2′,3′-dihydrospiro[cyclobutane-1,1′-pyrrolo[2,3-c]quinolin]-8′-yl)-2-(2-(isopropylamino)ethoxy)pyridin-3-yl)methanesulfonamide], the IC50 [2] was over 0.1 µM and the IC50 ([1]; tail current) was 5.5 µM.
